# In PubChem BioAssay (NCI):
#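 96-well plates; 48 h exposure; 5 concentrations. Endpoints by linear interpolation between flanking doses. Not reached: highest tested concentration assigned. GI50: concentration for 50% inhibition of growth. TGI: total growth inhibition.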
# Columns and labels:
# Test in all cases: inhibition of tumour cell growth, NCI panel, 48 h
# HS 578T breast = tested on: HS 578T breast
# SNB-19 CNS = tested on: SNB-19 CNS
# CAKI-1 renal = tested on: CAKI-1 renal
# LOX IMVI melanoma = tested on: LOX IMVI melanoma
# SF-295 CNS = tested on: SF-295 CNS
# SN12C renal = tested on: SN12C renal
# NCI-H23 lung = tested on: NCI-H23 lung
# OVCAR-8 ovarian = tested on: OVCAR-8 ovarian
# K-562 leukemia = tested on: K-562 leukemia
# UO-31 renal = tested on: UO-31 renal
# NCI-H522 lung = tested on: NCI-H522 lung
# A549 NSCLC = tested on: A549 NSCLC
# SK-MEL-28 melanoma = tested on: SK-MEL-28 melanoma
# DU-145 prostate = tested on: DU-145 prostate
# IGROV1 ovarian = tested on: IGROV1 ovarian
# HCT-116 colon = tested on: HCT-116 colon
# HOP-62 NSCLC = tested on: HOP-62 NSCLC
# OVCAR-3 ovarian = tested on: OVCAR-3 ovarian
# HT29 colon = tested on: HT29 colon
# T-47D breast = tested on: T-47D breast
# SF-539 CNS = tested on: SF-539 CNS
# KM12 colon = tested on: KM12 colon
# SNB-75 CNS = tested on: SNB-75 CNS
# U251 CNS = tested on: U251 CNS
# TK-10 renal = tested on: TK-10 renal
# UACC-62 melanoma = tested on: UACC-62 melanoma
# OVCAR-5 ovarian = tested on: OVCAR-5 ovarian
# HCC-2998 colon = tested on: HCC-2998 colon
# BT-549 breast = tested on: BT-549 breast
# ACHN renal = tested on: ACHN renal
# HCT-15 colon = tested on: HCT-15 colon
# UACC-257 melanoma = tested on: UACC-257 melanoma
# PC-3 prostate = tested on: PC-3 prostate
# SK-MEL-5 melanoma = tested on: SK-MEL-5 melanoma
# M14 melanoma = tested on: M14 melanoma
# SK-OV-3 ovarian = tested on: SK-OV-3 ovarian
# NCI/ADR-RES ovarian = tested on: NCI/ADR-RES ovarian
# HOP-92 NSCLC = tested on: HOP-92 NSCLC
# SW-620 colon = tested on: SW-620 colon
# 786-0 renal = tested on: 786-0 renal
# OVCAR-4 ovarian = tested on: OVCAR-4 ovarian
# MCF7 breast = tested on: MCF7 breast
# HL-60(TB) leukemia = tested on: HL-60(TB) leukemia
# SK-MEL-2 melanoma = tested on: SK-MEL-2 melanoma
# SR leukemia = tested on: SR leukemia
# CCRF-CEM leukemia = tested on: CCRF-CEM leukemia
# RPMI-8226 leukemia = tested on: RPMI-8226 leukemia
# RXF 393 renal = tested on: RXF 393 renal
# MDA-MB-435 = tested on: MDA-MB-435
# MOLT-4 leukemia = tested on: MOLT-4 leukemia
# MDA-MB-231 breast = tested on: MDA-MB-231 breast
# NCI-H226 lung = tested on: NCI-H226 lung
# EKVX NSCLC = tested on: EKVX NSCLC
# MALME-3M melanoma = tested on: MALME-3M melanoma
# COLO 205 colon = tested on: COLO 205 colon
# NCI-H460 lung = tested on: NCI-H460 lung
# SF-268 CNS = tested on: SF-268 CNS
# A498 renal = tested on: A498 renal
compound,measurement,setting,value
CCCCCCCCCCCC1=NC(C)(C)CN1CC(C)O (stereo unspecified),GI50,HS 578T breast,2.6 µM
same,TGI,HS 578T breast,17.3 µM
same,GI50,SNB-19 CNS,12.9 µM
same,TGI,SNB-19 CNS,25.8 µM
same,GI50,CAKI-1 renal,2.97 µM
same,TGI,CAKI-1 renal,12.2 µM
same,GI50,LOX IMVI melanoma,1.85 µM
same,TGI,LOX IMVI melanoma,4.42 µM
same,GI50,SF-295 CNS,4.36 µM
same,TGI,SF-295 CNS,17.8 µM
same,GI50,SN12C renal,7.26 µM
same,TGI,SN12C renal,20.3 µM
same,GI50,NCI-H23 lung,4.36 µM
same,TGI,NCI-H23 lung,16 µM
same,GI50,OVCAR-8 ovarian,8.89 µM
same,TGI,OVCAR-8 ovarian,25 µM
same,GI50,K-562 leukemia,1.62 µM
same,TGI,K-562 leukemia,3.33 µM
same,GI50,UO-31 renal,4.75 µM
same,TGI,UO-31 renal,18.7 µM
same,GI50,NCI-H522 lung,3.42 µM
same,TGI,NCI-H522 lung,15.9 µM
same,GI50,A549 NSCLC,6.83 µM
same,TGI,A549 NSCLC,22.6 µM
same,GI50,SK-MEL-28 melanoma,1.75 µM
same,TGI,SK-MEL-28 melanoma,3.26 µM
same,GI50,DU-145 prostate,11.7 µM
same,TGI,DU-145 prostate,24 µM
same,GI50,IGROV1 ovarian,1.89 µM
same,TGI,IGROV1 ovarian,4.75 µM
same,GI50,HCT-116 colon,2.06 µM
same,TGI,HCT-116 colon,4.9 µM
same,GI50,HOP-62 NSCLC,4.75 µM
same,TGI,HOP-62 NSCLC,17.4 µM
same,GI50,OVCAR-3 ovarian,3.35 µM
same,TGI,OVCAR-3 ovarian,12.7 µM
same,GI50,HT29 colon,1.43 µM
same,TGI,HT29 colon,2.86 µM
same,GI50,T-47D breast,3.27 µM
same,TGI,T-47D breast,11.2 µM
same,GI50,SF-539 CNS,1.67 µM
same,TGI,SF-539 CNS,3.14 µM
same,GI50,KM12 colon,2.25 µM
same,TGI,KM12 colon,4.84 µM
same,GI50,SNB-75 CNS,9.26 µM
same,TGI,SNB-75 CNS,21.3 µM
same,GI50,U251 CNS,3.3 µM
same,TGI,U251 CNS,12 µM
same,GI50,TK-10 renal,10.3 µM
same,TGI,TK-10 renal,22.7 µM
same,GI50,UACC-62 melanoma,1.78 µM
same,TGI,UACC-62 melanoma,3.47 µM
same,GI50,OVCAR-5 ovarian,12.3 µM
same,TGI,OVCAR-5 ovarian,24.8 µM
same,GI50,HCC-2998 colon,1.69 µM
same,TGI,HCC-2998 colon,3.07 µM
same,GI50,BT-549 breast,5.93 µM
same,TGI,BT-549 breast,22.2 µM
same,GI50,ACHN renal,10 µM
same,TGI,ACHN renal,21.6 µM
same,GI50,HCT-15 colon,1.95 µM
same,TGI,HCT-15 colon,4.75 µM
same,GI50,UACC-257 melanoma,2.81 µM
same,TGI,UACC-257 melanoma,7.49 µM
same,GI50,PC-3 prostate,4.48 µM
same,TGI,PC-3 prostate,18.6 µM
same,GI50,SK-MEL-5 melanoma,5.65 µM
same,TGI,SK-MEL-5 melanoma,18.1 µM
same,GI50,M14 melanoma,1.62 µM
same,TGI,M14 melanoma,3.1 µM
same,GI50,SK-OV-3 ovarian,12.4 µM
same,TGI,SK-OV-3 ovarian,24.8 µM
same,GI50,NCI/ADR-RES ovarian,11.8 µM
same,TGI,NCI/ADR-RES ovarian,24.1 µM
same,GI50,HOP-92 NSCLC,2.06 µM
same,TGI,HOP-92 NSCLC,13.6 µM
same,GI50,SW-620 colon,1.85 µM
same,TGI,SW-620 colon,3.91 µM
same,GI50,786-0 renal,11.8 µM
same,TGI,786-0 renal,25.9 µM
same,GI50,OVCAR-4 ovarian,10.6 µM
same,TGI,OVCAR-4 ovarian,22.4 µM
same,GI50,MCF7 breast,2.05 µM
same,TGI,MCF7 breast,4.77 µM
same,GI50,HL-60(TB) leukemia,2.44 µM
same,TGI,HL-60(TB) leukemia,5.68 µM
same,GI50,SK-MEL-2 melanoma,2.41 µM
same,TGI,SK-MEL-2 melanoma,6.12 µM
same,GI50,SR leukemia,1.47 µM
same,TGI,SR leukemia,3.75 µM
same,GI50,CCRF-CEM leukemia,2.85 µM
same,TGI,CCRF-CEM leukemia,11.9 µM
same,GI50,RPMI-8226 leukemia,1.58 µM
same,TGI,RPMI-8226 leukemia,4.18 µM
same,GI50,RXF 393 renal,2.55 µM
same,TGI,RXF 393 renal,6.96 µM
same,GI50,MDA-MB-435,2.05 µM
same,TGI,MDA-MB-435,4.91 µM
same,GI50,MOLT-4 leukemia,2.83 µM
same,TGI,MOLT-4 leukemia,8.51 µM
same,GI50,MDA-MB-231 breast,3.82 µM
same,TGI,MDA-MB-231 breast,13.7 µM
same,GI50,NCI-H226 lung,13.1 µM
same,TGI,NCI-H226 lung,28.6 µM
same,GI50,EKVX NSCLC,11.2 µM
same,TGI,EKVX NSCLC,25.2 µM
same,GI50,MALME-3M melanoma,5.64 µM
same,TGI,MALME-3M melanoma,20.4 µM
same,GI50,COLO 205 colon,1.68 µM
same,TGI,COLO 205 colon,3.05 µM
same,GI50,NCI-H460 lung,2.35 µM
same,TGI,NCI-H460 lung,5.05 µM
same,GI50,SF-268 CNS,7.35 µM
same,TGI,SF-268 CNS,19.9 µM
same,GI50,A498 renal,10 µM
same,TGI,A498 renal,22.8 µM
